Results published in ChEMBL document CHEMBL1909046, “DrugMatrix in vitro pharmacology data”.

Assays:
[1] = molecular target: Cytochrome P450 2C9 (Homo sapiens, UniProt P11712); conditions: bti-tn-5b1-4; also: in other assays of this panel Not Active means under 50% inhibition at 10 µM
[2] = molecular target: Tyrosine-protein kinase Lck (Homo sapiens, UniProt P06239); assay: DRUGMATRIX: Protein Tyrosine Kinase, LCK enzyme inhibition (substrate: Poly(Glu:Tyr)); assay type: cell-based, Insect cells; conditions: insect cells; Not Active = under 50% inhibition at 10 µM
[3] = molecular target: Mu-type opioid receptor (Homo sapiens, UniProt P35372); assay: DRUGMATRIX: Opiate mu (OP3, MOP) radioligand binding (ligand: [3H] Diprenorphine); assay type: cell membranes, CHO-K1, Membrane; conditions: cho-k1; Not Active = under 50% inhibition at 10 µM
[4] = molecular target: T1, Cytochrome P450 2A6 (Homo sapiens, UniProt P11509); conditions: bti-tn-5b1-4; also: in other assays of this panel Not Active means under 50% inhibition at 10 µM
T1 sequence (P11509 whole entry): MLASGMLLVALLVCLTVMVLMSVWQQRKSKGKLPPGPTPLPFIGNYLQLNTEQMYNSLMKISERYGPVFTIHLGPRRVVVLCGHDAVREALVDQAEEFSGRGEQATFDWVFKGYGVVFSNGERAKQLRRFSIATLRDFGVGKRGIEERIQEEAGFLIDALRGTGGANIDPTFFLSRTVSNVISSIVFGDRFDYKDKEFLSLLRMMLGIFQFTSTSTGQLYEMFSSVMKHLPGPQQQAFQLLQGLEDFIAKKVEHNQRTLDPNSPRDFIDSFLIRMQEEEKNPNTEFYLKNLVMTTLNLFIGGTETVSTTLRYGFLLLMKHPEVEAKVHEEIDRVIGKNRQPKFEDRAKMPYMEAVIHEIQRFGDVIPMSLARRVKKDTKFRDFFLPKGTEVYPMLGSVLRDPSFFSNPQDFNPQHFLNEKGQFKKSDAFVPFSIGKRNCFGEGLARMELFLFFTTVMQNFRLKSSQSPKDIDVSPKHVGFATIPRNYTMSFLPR

[5] = molecular target: T2, Polyunsaturated fatty acid lipoxygenase ALOX15 (Oryctolagus cuniculus, UniProt P12530); assay: biochemical; assay type: tissue-based, Reticulocytes; conditions: reticulocytes;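 also: inhibition of 15-lipoxygenase enzyme activity measured with linoleic acid as the substrate; in other assays of this panel Not Active means under 50% inhibition at 10 µM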
T2 sequence (P12530 whole entry): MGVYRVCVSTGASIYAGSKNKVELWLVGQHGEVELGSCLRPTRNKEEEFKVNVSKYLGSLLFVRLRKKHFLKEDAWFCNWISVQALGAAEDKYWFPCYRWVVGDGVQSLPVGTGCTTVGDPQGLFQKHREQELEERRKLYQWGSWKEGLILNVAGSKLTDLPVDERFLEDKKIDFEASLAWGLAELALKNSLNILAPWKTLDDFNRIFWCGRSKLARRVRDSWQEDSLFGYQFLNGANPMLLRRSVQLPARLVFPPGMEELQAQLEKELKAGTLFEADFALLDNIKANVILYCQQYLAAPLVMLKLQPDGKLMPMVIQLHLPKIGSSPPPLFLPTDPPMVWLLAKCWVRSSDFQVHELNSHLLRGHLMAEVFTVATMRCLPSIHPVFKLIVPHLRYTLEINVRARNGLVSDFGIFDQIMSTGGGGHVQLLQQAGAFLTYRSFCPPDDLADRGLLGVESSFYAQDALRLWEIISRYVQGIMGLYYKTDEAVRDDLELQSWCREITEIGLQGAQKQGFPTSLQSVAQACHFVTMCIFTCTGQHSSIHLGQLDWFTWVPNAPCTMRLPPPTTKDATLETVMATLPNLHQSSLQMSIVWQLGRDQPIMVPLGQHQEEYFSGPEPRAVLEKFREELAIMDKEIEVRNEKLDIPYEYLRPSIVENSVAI

[6] = molecular target: T3, Nitric oxide synthase, inducible (Mus musculus, UniProt P29477); set-up: species or system Escherichia coli;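 also: inhibition of iNOS enzyme activity measured with L-arginine as substrate; in other assays of this panel Not Active means under 50% inhibition at 10 µM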
T3 sequence (P29477 whole entry): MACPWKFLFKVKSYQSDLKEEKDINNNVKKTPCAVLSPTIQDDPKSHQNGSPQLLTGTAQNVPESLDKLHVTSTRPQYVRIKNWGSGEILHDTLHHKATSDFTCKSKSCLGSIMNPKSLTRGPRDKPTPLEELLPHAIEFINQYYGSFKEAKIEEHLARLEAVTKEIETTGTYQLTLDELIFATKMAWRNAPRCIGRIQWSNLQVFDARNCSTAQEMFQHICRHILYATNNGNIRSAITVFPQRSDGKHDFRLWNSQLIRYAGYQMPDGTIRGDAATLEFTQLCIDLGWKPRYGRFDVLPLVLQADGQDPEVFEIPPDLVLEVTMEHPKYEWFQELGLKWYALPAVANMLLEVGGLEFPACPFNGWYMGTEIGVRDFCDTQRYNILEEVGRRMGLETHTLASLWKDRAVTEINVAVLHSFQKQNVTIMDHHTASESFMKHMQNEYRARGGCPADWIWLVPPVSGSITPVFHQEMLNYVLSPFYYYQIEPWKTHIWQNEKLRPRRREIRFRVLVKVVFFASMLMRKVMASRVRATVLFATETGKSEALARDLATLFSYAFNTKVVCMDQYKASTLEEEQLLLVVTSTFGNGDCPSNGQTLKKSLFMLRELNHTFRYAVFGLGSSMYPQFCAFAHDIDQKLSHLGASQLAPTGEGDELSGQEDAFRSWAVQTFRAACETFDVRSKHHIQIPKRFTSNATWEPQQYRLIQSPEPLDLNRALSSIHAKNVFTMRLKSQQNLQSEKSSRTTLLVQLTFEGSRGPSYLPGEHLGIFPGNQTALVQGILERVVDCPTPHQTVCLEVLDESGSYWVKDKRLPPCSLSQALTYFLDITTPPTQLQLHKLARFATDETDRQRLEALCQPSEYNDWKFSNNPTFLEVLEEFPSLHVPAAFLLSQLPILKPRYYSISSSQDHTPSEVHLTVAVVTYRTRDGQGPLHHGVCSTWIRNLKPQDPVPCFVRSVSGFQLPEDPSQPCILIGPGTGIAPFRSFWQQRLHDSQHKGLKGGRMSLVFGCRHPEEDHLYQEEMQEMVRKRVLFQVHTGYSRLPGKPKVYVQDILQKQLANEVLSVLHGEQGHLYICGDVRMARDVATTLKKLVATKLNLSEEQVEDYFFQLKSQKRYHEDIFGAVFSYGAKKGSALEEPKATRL

Chain of Tyrosine-protein kinase Lck (P06239 whole entry): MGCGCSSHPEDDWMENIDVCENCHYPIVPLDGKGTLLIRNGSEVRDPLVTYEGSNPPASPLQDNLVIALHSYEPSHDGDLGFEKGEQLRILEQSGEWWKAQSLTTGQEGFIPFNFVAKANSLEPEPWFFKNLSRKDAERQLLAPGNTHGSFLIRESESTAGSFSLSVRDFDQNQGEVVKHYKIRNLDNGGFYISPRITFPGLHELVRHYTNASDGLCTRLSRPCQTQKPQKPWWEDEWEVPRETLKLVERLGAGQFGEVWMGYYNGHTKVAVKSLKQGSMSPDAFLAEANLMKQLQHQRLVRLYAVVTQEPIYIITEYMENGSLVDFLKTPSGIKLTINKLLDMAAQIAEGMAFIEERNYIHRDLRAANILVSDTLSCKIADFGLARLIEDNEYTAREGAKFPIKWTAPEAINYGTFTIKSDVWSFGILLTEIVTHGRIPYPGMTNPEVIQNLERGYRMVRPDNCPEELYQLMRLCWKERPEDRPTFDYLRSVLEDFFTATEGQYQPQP
Chain of Mu-type opioid receptor (P35372 whole entry): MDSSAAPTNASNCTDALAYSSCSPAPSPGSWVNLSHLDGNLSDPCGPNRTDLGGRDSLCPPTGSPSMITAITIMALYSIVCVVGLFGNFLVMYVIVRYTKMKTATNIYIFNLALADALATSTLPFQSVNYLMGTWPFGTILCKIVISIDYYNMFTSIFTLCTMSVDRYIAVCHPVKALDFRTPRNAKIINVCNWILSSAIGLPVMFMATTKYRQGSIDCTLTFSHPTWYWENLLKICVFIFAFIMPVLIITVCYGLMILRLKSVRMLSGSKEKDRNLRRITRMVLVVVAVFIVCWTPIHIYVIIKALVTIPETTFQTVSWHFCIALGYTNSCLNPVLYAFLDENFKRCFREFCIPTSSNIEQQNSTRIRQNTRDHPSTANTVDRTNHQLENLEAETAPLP
Chain of Cytochrome P450 2C9 (P11712 whole entry): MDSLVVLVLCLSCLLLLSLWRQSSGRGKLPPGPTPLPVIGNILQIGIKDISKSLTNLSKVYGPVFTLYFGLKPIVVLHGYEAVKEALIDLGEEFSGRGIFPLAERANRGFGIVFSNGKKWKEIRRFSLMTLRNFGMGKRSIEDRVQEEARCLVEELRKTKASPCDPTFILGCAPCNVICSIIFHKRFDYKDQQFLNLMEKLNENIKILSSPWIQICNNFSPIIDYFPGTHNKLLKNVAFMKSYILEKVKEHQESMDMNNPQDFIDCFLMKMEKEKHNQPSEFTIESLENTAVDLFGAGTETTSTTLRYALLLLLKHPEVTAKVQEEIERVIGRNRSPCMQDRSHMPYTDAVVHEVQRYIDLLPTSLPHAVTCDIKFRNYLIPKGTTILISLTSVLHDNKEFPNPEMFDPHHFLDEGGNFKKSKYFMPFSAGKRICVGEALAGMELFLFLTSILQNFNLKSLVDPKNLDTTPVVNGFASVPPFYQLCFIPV

O=c1ccc2ccccc2o1 [COUMARIN]
Not Active: IC50 [1] | Ki [1] | IC50 [2] | IC50 [3] | IC50 [4] | Ki [4] | IC50 [5] | IC50 [6]

CC1(C)O[C@@H]2C[C@H]3[C@@H]4C[C@H](F)C5=CC(=O)C=C[C@]5(C)[C@H]4[C@@H](O)C[C@]3(C)[C@]2(C(=O)CO)O1 [FLUNISOLIDE]
Not Active: IC50 [1] | Ki [1] | IC50 [2] | IC50 [3] | IC50 [4] | Ki [4] | IC50 [5] | IC50 [6]

CC1(C)O[C@@H]2C[C@H]3[C@@H]4C[C@H](F)C5=CC(=O)C=C[C@]5(C)[C@@]4(F)[C@@H](O)C[C@]3(C)[C@]2(C(=O)CO)O1 [FLUOCINOLONE ACETONIDE]
Not Active: IC50 [1] | Ki [1] | IC50 [2] | IC50 [3] | IC50 [4] | Ki [4] | IC50 [5] | IC50 [6]

N=C(Nc1ccccc1)Nc1ccccc1
Not Active: IC50 [1] | Ki [1] | IC50 [2] | IC50 [3] | IC50 [4] | Ki [4] | IC50 [5] | IC50 [6]

CC[C@@H](CO)NCCN[C@@H](CC)CO [ETHAMBUTOL]
Not Active: IC50 [1] | Ki [1] | IC50 [2] | IC50 [3] | IC50 [4] | Ki [4] | IC50 [5] | IC50 [6]

CN1C(=O)COc2c(C(=O)NC3CN4CCC3CC4)cc(Cl)cc21 (stereo not given) [AZASETRON]
Not Active: IC50 [1] | Ki [1] | IC50 [2] | IC50 [3] | IC50 [4] | Ki [4] | IC50 [5] | IC50 [6]

O=C(C1CCCCC1)N1CC(=O)N2CCc3ccccc3C2C1 (stereo not given) [PRAZIQUANTEL]
Not Active: IC50 [1] | Ki [1] | IC50 [2] | IC50 [3] | IC50 [4] | Ki [4] | IC50 [5] | IC50 [6]

C[C@]12CC[C@@H]3c4ccc(OC(=O)c5ccccc5)cc4CC[C@H]3[C@@H]1CC[C@@H]2O [ESTRADIOL BENZOATE]
Not Active: IC50 [1] | Ki [1] | IC50 [2] | IC50 [3] | IC50 [4] | Ki [4] | IC50 [5] | IC50 [6]

C[N+](C)(C)CCO.[Cl-] [CHOLINE CHLORIDE]
Not Active: IC50 [1] | Ki [1] | IC50 [2] | IC50 [3] | IC50 [4] | Ki [4] | IC50 [5] | IC50 [6]

O=S(=O)([O-])CCS.[Na+] [MESNA]
Not Active: IC50 [1] | Ki [1] | IC50 [2] | IC50 [3] | IC50 [4] | Ki [4] | IC50 [5] | IC50 [6]

CCN[C@@H]1C[C@H](N)[C@@H](O[C@H]2OC(CN)=CC[C@H]2N)[C@H](O)[C@H]1O[C@H]1OC[C@](C)(O)[C@H](NC)[C@H]1O [NETILMICIN]
Not Active: IC50 [1] | Ki [1] | IC50 [2] | IC50 [3] | IC50 [4] | Ki [4] | IC50 [5] | IC50 [6]

C#C[C@]1(OC(C)=O)CC[C@H]2[C@@H]3CCC4=CC(=O)CC[C@@H]4[C@H]3CC[C@@]21C [NORETHINDRONE ACETATE]
Not Active: IC50 [1] | Ki [1] | IC50 [2] | IC50 [3] | IC50 [4] | Ki [4] | IC50 [5] | IC50 [6]

CC(=O)Nc1c(I)c(NC(C)=O)c(I)c(C(=O)O)c1I [DIATRIZOIC ACID]
Not Active: IC50 [1] | Ki [1] | IC50 [2] | IC50 [3] | IC50 [4] | Ki [4] | IC50 [5] | IC50 [6]

CC1(C)O[C@@H]2C[C@H]3[C@@H]4C[C@H](F)C5=CC(=O)CC[C@]5(C)[C@H]4[C@@H](O)C[C@]3(C)[C@]2(C(=O)CO)O1 [FLURANDRENOLIDE]
Not Active: IC50 [1] | Ki [1] | IC50 [2] | IC50 [3] | IC50 [4] | Ki [4] | IC50 [5] | IC50 [6]

CC(=O)OCC(=O)[C@@]1(O)CC[C@H]2[C@@H]3CCC4=CC(=O)CC[C@]4(C)[C@H]3C(=O)C[C@@]21C [CORTISONE ACETATE]
Not Active: IC50 [1] | Ki [1] | IC50 [2] | IC50 [3] | IC50 [4] | Ki [4] | IC50 [5] | IC50 [6]

CCN1CC(CCN2CCOCC2)C(c2ccccc2)(c2ccccc2)C1=O (stereo not given) [DOXAPRAM]
Not Active: IC50 [1] | Ki [1] | IC50 [2] | IC50 [3] | IC50 [4] | Ki [4] | IC50 [5] | IC50 [6]

NC(=O)c1cnccn1 [PYRAZINAMIDE]
Not Active: IC50 [1] | Ki [1] | IC50 [2] | IC50 [3] | IC50 [4] | Ki [4] | IC50 [5] | IC50 [6]

O=C1CC[C@H](N2C(=O)c3ccccc3C2=O)C(=O)N1
Not Active: IC50 [1] | Ki [1] | IC50 [2] | IC50 [3] | IC50 [4] | Ki [4] | IC50 [5] | IC50 [6]

ClC(Cl)Cl [CHLOROFORM]
Not Active: IC50 [1] | Ki [1] | IC50 [2] | IC50 [3] | IC50 [4] | Ki [4] | IC50 [5] | IC50 [6]

CCc1c2c(nc3ccc(OC(=O)N4CCC(N5CCCCC5)CC4)cc13)-c1cc3c(c(=O)n1C2)COC(=O)[C@]3(O)CC [IRINOTECAN]
Not Active: IC50 [1] | Ki [1] | IC50 [2] | IC50 [3] | IC50 [4] | Ki [4] | IC50 [5] | IC50 [6]
